In patent US9907848B2, “Methods and compositions for treatment of metabolic disorders” (Beth Israel Deaconess Medical Center, Inc., priority 2010, dated 2018):
Entries after “also recorded” stand apart in the source; their conditions may differ.

What was measured:
[1] = system: iNKT cells; assay: αGC treatment of obese wt mice on HFD, metabolic outcome 4 days post-injection; format: in vivo
Procedure: (§1) The prototypical ligand for iNKT cells is the glycolipid, αGC. We investigated whether αGC treatment could activate the residual iNKT cells in obesity and improve metabolic outcome (FIGS. 16A-16H).
(§2) Wt, Jα18 KO and CD1d KO were weighed weekly and food intake was monitored on HFD. Body fat content was measured by an X-ray emitting DEXA scan, performed after mice were sacrificed. Whole abdominal adipose fat pads were weighed after dissecting out the testes and lymph nodes. After 6 weeks on HFD, fasting blood glucose (OneTouch Ultra) and insulin concentrations (Crystal Chem ELISA) were measured. For glucose tolerance tests, fasted (10 h) mice received 1 g glucose per kg body weight intraperitoneally (i.p); for insulin resistance, the homeostatic model assessment of insulin resistance (HOMA-IR) was used (Matthews et al., Diabetologia 28:412-419, 1985) was used: fasting blood glucose×fasting insulin/22.5. Two samples of 5 mm liver were collected and fixed in formalin overnight, prior to paraffin mounting and preparation of ME or Oil Red 0 stained slides for measurement of fatty liver or adipose prior to αGC (or control) treatment. For H&E and Oil Red O staining, biopsies were viewed using the 20× objective. Degree of fatty liver was measured by Oil Red O staining intensity around 5 portal tract areas per slide.
Adipocyte size and number were measured by osmium and immunohistochemistry. Two samples of 20-30 mg of adipose tissue per mouse were immediately fixed in osmium tetroxide (3% solution in collidine 0.05 M), minced into 1 mm pieces and incubated in the dark at room temperature for 48 hours. Adipose cell size and number were determined by a Beckman Coulter Multisizer III Counter with a 400 μm aperture. Adipose tissue was also fixed in formalin overnight, prior to paraffin mounting and preparation of H&E slid s. Adipocyte number was counted per field of view, in ten fields per sample and related back to the original weight of each fat pad.
(§3) Mice were injected i.p. with 2 μg of αGC or vehicle, and mice were sacrificed after 5 hours or 4 days, at the time of metabolic analysis. Single cell suspension of splenocytes, LMNC, and adipose tissue SVF were obtained as before, but with the inclusion of Brefeldin A in all media. Single cell suspensions of splenocytes or liver mononuclear cells (LMC) were stained firstly with cell surface labeling anti-CD3 mAb and αGC-loaded CD1d tetramer. Cells were then fixed, permeabilized, and intracellular cytokine stained for IL-4, IL-10 and IFN-γ using Cytofix/cytoperm (BD Biosciences), according to the manufacturer's instructions.

[2] = system: IL-4 and IL-10; assay: Neutralizing IL-4 and IL-10 prior to αGC treatment, metabolic outcomes after 4 days; format: in vivo, mice; details: IL-4 and IL-10 neutralized before αGC injection
Description: As adipose tissue iNKT cells are skewed towards IL-4 and IL-10 production, we next investigated whether IL-4 and IL-10 were mediators of this protection seen by αGC treatment. We neutralized IL-4 and IL-10 prior to αGC treatment and measured metabolic outcomes after 4 days.

[3] = system: iNKT cells; assay: Effect of αGC on iNKT cells in fat, liver and spleen of obese mice; format: in vivo; details: after 6 hours
[4] = system: iNKT cells; assay: as above; format: in vivo
Procedure: Single cell suspensions of splenocytes, liver mononuclear cells (LMNCs), and adipose SVF were blocked with anti-CD16/32 mAb and stained for 30 min at 4° C. in the dark with PBS-57-loaded or empty CD1d tetramer-PE (NIH tetramer facility) and CD3 (1:150 dilution, eBiosciences). Macrophages were labeled with phycoerythrin-conjugated antibody to F4/80 (1 in 100) and CD11c (1 in 200) and CD206 (1 in 200) to differentiate M1 from M2 macrophages in the SVF as previously described.
as §3

[5] = system: iNKT cells; assay: αGC treatment of obese Jα18 KO mice (no iNKT cells), control; format: in vivo; details: 4 days post αGC
Procedure: as §1, §2, §3

[6] = system: iNKT; assay: iNKT cytokine production in response to αGC in vivo (wt mice)
Procedure: (§4) To verify the cytokine profile, iNKT were isolated (>90% purity) and stimulated in vitro with αGC.
as §3

[7] = system: iNKT; details: literature statement; cited from earlier work
[8] = system: iNKT cells; assay: αGC treatment of normal weight mice on SFD; format: in vivo
Procedure: as §1
as §2, with “After 6 weeks on HFD, fasting blood glucose (OneTouch Ultra) and insulin concentrations (Crystal Chem ELISA) were measured.” left out
Mice were injected i.p. with 2 μg of αGC or vehicle, and mice were sacrificed after 5 hours or 4 days, at the time of metabolic analysis. […]

[9] = system: iNKT; assay: In vitro iNKT cytokine production stimulated by αGC-loaded CD1d+ C1R cells; format: cell-based, mice; details: isolated iNKT stimulated with αGC
Description: as §4

CCCCCCCCCCCCCCCCCCCCCCCCCC(=O)NC(COC1OC(CO)C(O)C(O)C1O)C(O)C(O)CCCCCCCCCCCCCC (stereo not drawn) [αGC, α-galactosylceramide]
% body fat (DEXA) ([1]; 4 days post αGC injection): lost a significant amount; also recorded: decreased | adipocyte number ([1]; 4 days post αGC injection): did not affect cell number; also recorded: did not differ | adipocyte size ([1]; 4 days post αGC injection): rapid and dramatic reduction in adipocyte size; also recorded: decreased | circulating leptin ([1]; 4 days post αGC injection): significantly improved; also recorded: decreased | glucose tolerance test (GTT) ([1]; 4 days post αGC injection): improved GTT, returning it to almost normal | insulin resistance / insulin sensitivity ([1]; 4 days post αGC injection): significantly improved insulin resistance; also recorded: increased insulin sensitivity | lean mass (DEXA) ([1]; 4 days post αGC injection): did not differ | serum IL-4 ([1]; 4 days post αGC injection): non-significant increase | serum IL-6 ([1]; 4 days post αGC injection): decreased serum IL-6 | serum TNFα ([1]; 4 days post αGC injection): increased serum TNF-a | serum triglycerides (circulating TGL) ([1]; 4 days post αGC injection): significantly improved; also recorded: decreased circulating TGL | fat deposition in the liver (Oil Red O) ([1]; 4 days post αGC injection, vs PBS): fat droplets were smaller and less frequent | fasting blood glucose ([1]; 4 days post αGC injection, vs PBS control): marked reduction of fasting blood glucose | overall weight ([1]; one i.p. injection of αGC, continued HFD for 4 days, vs PBS/vehicle): lost a significant amount of overall weight | GTT [2]: prevented improvement | fasting glucose [2]: prevented improvement | invariant TCR expression on iNKT cells [3]: down-regulation of the invariant TCR after 6 hours | IFNγ production by adipose tissue iNKT cells ([4]; 4-5 hours, vs spleen and liver): little IFNγ | IL-4 and IL-10 production by adipose tissue iNKT cells ([4]; 4-5 hours, vs spleen and liver): more IL-4 and IL-10 | expansion of iNKT cells in fat (adipose tissue) ([4]; 4 days post-injection): expansion was greater in fat; also recorded: dramatic expansion | cytokine production by adipose tissue iNKT cells ([4]; day 4 post-injection): still producing cytokines at day 4; also recorded: produced IL-4, IL-10, and IFN-γ at day 4; also recorded: remained actively producing cytokines | expansion of iNKT cells in spleen and liver ([4]; day 4 post-injection): expansion of iNKT cells by day 4 | cytokine production by liver and spleen iNKT cells ([4]; within 4-5 hours): produced both IFNγ and IL-4 | GTT [5]: not seen; also recorded: did not affect | fasting glucose [5]: improvement in fasting glucose was not seen; also recorded: did not affect | weight loss [5]: weight loss was not seen | IL-4 production by adipose iNKT in vivo ([6]; following injection of αGC): slightly less IL-4 | IL-10 production by adipose iNKT in vivo ([6]; following injection of αGC, vs liver and spleen): significantly more IL-10 | IFNγ production by adipose iNKT in vivo ([6]; following injection of αGC, vs liver or spleen): did not produce IFNγ | IFNγ production by spleen and liver iNKT in vivo ([6]; response to αGC): copious IFNγ | IL-4 production by spleen and liver iNKT in vivo ([6]; response to αGC): less IL-4 | IL-10 production by spleen and liver iNKT in vivo ([6]; response to αGC): very low levels of IL-10 | activation of iNKT [7]: activate iNKT | GTT [8]: did not affect | fasting glucose [8]: did not affect | IL-10 production by adipose iNKT in vitro ([9]; vs liver or spleen): significantly more IL-10 per cell | IFNγ production by adipose iNKT in vitro ([9]; vs splenic or hepatic iNKT): low levels of IFNγ; also recorded: significantly less IFNγ
